Assays:
[1] = target: T1, Full length WRN protein (aa 2-1432) (Homo sapiens (Human), UniProt Q14191); assay: WRN ATPase ADP-Glo biochemical assay, Assay Format A (10 μM ATP); settings: 0.25 nM WRN, 100 nM C6.18 ssDNA, 30 min preincubation, read-out: ATPase ADPGlo AC50 (uM)- Assay Format A
Procedure, shortened: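 ADP-Glo luminescence measured hydrolysis of ATP by purified, baculovirus-expressed N-terminally tagged full-length WRN. Enzyme (0.5 nM) was preincubated 30 min with compound, then 200 nM ssDNA C6.18 plus 20 μM ATP were added (pre-mix levels) for 30 min at RT. IC50s come from four-parameter fits, geometric mean of at least two trials.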

[2] = target: T1, Full length WRN protein (aa 2-1432); assay: WRN ATPase ADP-Glo biochemical assay, Assay Format B (100 μM ATP); settings: 0.25 nM WRN, 100 nM C6.18 ssDNA, 60 min preincubation, read-out: ATPase ADPGlo AC50 (uM)- Assay Format B
[3] = test system: HCT116 cells; assay: HCT116 (MSI) 7 day viability, CellTiter Glo; format: cell-based; settings: Homo sapiens, HCT-116, 168 h, 7 days, read-out: HCT116 (MSI) Viability 7 Day Abs AC50
Procedure, shortened: (§1)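 For each line, compound dilution series (3-fold, 10 points) met a defined seeding density—HCT116 50, HT29 500 cells/well—followed by 7 days at 37 °C. Luminescent ATP signal, background-corrected with no-cell wells, gave four-parameter logistic IC50s.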

[4] = test system: HT29 cells; assay: HT29 (MSS) 7 day viability, CellTiter Glo; format: cell-based; settings: Homo sapiens, HT-29, 168 h, 7 days, read-out: HT29 (MSS) Viability 7 Day CTGAbs AC50
Procedure, shortened: as §1

T1 sequence (Q14191 2-1432): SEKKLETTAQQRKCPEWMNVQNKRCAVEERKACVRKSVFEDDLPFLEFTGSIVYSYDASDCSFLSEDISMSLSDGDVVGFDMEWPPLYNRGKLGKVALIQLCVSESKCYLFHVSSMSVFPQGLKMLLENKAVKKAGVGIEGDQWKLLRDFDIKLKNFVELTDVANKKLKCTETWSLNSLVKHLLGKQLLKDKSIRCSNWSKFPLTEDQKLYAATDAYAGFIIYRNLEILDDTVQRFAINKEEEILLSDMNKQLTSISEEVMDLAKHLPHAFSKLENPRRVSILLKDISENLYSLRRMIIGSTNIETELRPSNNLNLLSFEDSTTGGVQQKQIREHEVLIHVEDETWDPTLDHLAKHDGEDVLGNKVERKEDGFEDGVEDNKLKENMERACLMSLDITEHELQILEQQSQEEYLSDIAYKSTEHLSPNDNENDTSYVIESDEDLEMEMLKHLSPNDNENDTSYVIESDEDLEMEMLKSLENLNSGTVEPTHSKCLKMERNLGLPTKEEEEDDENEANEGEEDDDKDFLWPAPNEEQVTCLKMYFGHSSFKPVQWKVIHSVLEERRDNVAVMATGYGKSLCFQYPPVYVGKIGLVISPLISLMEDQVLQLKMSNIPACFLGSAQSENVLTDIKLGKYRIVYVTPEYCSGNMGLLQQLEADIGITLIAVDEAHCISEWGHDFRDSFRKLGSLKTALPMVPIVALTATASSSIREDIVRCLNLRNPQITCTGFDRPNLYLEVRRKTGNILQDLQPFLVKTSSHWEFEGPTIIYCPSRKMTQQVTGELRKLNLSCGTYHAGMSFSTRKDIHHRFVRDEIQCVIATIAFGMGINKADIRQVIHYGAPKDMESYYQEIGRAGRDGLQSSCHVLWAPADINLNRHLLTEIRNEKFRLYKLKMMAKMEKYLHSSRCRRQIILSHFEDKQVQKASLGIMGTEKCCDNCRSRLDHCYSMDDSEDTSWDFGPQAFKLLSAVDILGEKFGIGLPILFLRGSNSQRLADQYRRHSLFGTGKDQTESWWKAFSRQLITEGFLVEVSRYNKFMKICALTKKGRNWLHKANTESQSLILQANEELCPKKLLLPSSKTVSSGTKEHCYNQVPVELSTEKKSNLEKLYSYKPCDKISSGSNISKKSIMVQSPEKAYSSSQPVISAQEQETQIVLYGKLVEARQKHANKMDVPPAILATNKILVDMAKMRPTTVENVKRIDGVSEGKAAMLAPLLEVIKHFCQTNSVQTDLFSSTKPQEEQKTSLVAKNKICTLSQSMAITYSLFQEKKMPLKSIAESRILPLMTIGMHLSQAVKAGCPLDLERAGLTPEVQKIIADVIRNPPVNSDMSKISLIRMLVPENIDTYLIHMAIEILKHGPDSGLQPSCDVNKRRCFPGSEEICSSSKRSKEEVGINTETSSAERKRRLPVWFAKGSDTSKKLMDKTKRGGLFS

| AC50 [1] [µM] | AC50 [2] [µM] | Structure (SMILES) | AC50 [3] [nM] | AC50 [4] [nM] |
| --- | --- | --- | --- | --- |
| < 0.0015 | 0.0015 to 0.005 | C=CC(=O)N1CCc2nn(-c3ccc(C4CC4)cc3O)c3c2C(C1)N(C(=O)c1nnc(C(F)(F)F)cc1N)CC3 (stereo not shown) [Compound 248, 1-(5-(4-amino-6-(trifluoromethyl)pyridazine-3-carbonyl)-2-(4-cyclopropyl-2-hydroxyphenyl)-2,3,4,5,5a,6,8,9-octahydro-7H-1,2,5,7-tetraazabenzo[cd]azulen-7-yl)prop-2-en-1-one] | 1 to 100 | > 3000 |
| < 0.0015 | 0.005 to 0.015 | C=CC(=O)N1CCOc2nn(-c3ccc(C(C)C)cc3O)c3c2C(C1)N(C(=O)c1ccc(Br)c2[nH]cnc12)CC3 (stereo not shown) [Compound 44, 1-(5-(7-bromo-1H-benzo[d]imidazole-4-carbonyl)-2-(2-hydroxy-4-isopropylphenyl)-2,3,4,5,5a,6,8,9-octahydro-7H-10-oxa-1,2,5,7-tetraazacycloocta[cd]inden-7-yl)prop-2-en-1-one] | 1 to 100 | > 3000 |
| 0.0015 to 0.005 | 0.015 to 0.055 | C=CC(=O)N1CCc2nn(-c3ccc(C4CCC4(F)F)cc3O)c3c2C(C1)N(C(=O)c1ccc(Br)c2[nH]cnc12)CC3 (stereo not shown) [Compound 6, 1-(5-(7-bromo-1H-benzo[d]imidazole-4-carbonyl)-2-(4-(2,2-difluorocyclobutyl)-2-hydroxyphenyl)-2,3,4,5,5a,6,8,9-octahydro-7H-1,2,5,7-tetraazabenzo[cd]azulen-7-yl)prop-2-en-1-one] | 1 to 100 | > 3000 |
| < 0.0015 | 0.005 to 0.015 | C=CC(=O)N1CCc2nn(-c3ccc(C4CC4)cc3)c3c2C(C1)N(C(=O)c1cnc(C(F)(F)F)cc1N)CC3 (stereo not shown) [Compound 128, 1-(5-(4-amino-6-(trifluoromethyl)nicotinoyl)-2-(4-cyclopropylphenyl)-2,3,4,5,5a,6,8,9-octahydro-7H-1,2,5,7-tetraazabenzo[cd]azulen-7-yl)prop-2-en-1-one] | 1 to 100 | > 3000 |
| 0.0015 to 0.005 | 0.015 to 0.055 | C=CC(=O)N1CCc2nn(-c3ccc(C45CC(C4)C5)c(F)c3O)c3c2C(C1)N(C(=O)c1cnc(C(F)(F)F)c(O)c1)CC3 (stereo not shown) [Compound 101, 1-(2-(4-(bicyclo[1.1.1]pentan-1-yl)-3-fluoro-2-hydroxyphenyl)-5-(5-hydroxy-6-(trifluoromethyl)nicotinoyl)-2,3,4,5,5a,6,8,9-octahydro-7H-1,2,5,7-tetraazabenzo[cd]azulen-7-yl)prop-2-en-1-one] | 100 to 250 | > 3000 |
| 0.0015 to 0.005 | 0.015 to 0.055 | C=CC(=O)N1CCc2nn(-c3ccc(C(F)(F)F)nc3N)c3c2C(C1)N(C(=O)c1ccc(Br)c2[nH]c(C(F)F)nc12)CC3 (stereo not shown) [Compound 136, 1-(2-(2-amino-6-(trifluoromethyl)pyridin-3-yl)-5-(7-bromo-2-(difluoromethyl)-1H-benzo[d]imidazole-4-carbonyl)-2,3,4,5,5a,6,8,9-octahydro-7H-1,2,5,7-tetraazabenzo[cd]azulen-7-yl)prop-2-en-1-one] | 100 to 250 | > 3000 |
| < 0.0015 | 0.005 to 0.015 | C=CC(=O)N1CC(OC2CC3(COC3)C2)c2nn(-c3ccc(C4CCC4)cc3)c3c2C(C1)N(C(=O)c1cnc(C(F)(F)F)cc1N)CC3 (stereo not shown) [Compound 246] | 1 to 100 | > 3000 |
| < 0.0015 | 0.005 to 0.015 | C=CC(=O)N1CCc2nn(-c3ccc(C4CCC4)c(F)c3O)c3c2C(C1)N(C(=O)c1cnc(C(F)(F)F)cc1N)CC3 (stereo not shown) [Compound 139, 1-(5-(4-amino-6-(trifluoromethyl)nicotinoyl)-2-(4-cyclobutyl-3-fluoro-2-hydroxyphenyl)-2,3,4,5,5a,6,8,9-octahydro-7H-1,2,5,7-tetraazabenzo[cd]azulen-7-yl)prop-2-en-1-one] | 1 to 100 | > 3000 |
| > 0.055 | > 0.055 | C=CC(=O)N1CCc2nn(-c3ccc(C4CC4)cc3)c3c2C(C1)N(C(=O)c1ccn(CC(F)(F)F)c(=O)c1)CC3 (stereo not shown) [Compound 68, 4-(7-acryloyl-2-(4-cyclopropylphenyl)-3,4,5,5a,6,7,8,9-octahydro-2H-1,2,5,7-tetraazabenzo[cd]azulene-5-carbonyl)-1-(2,2,2-trifluoroethyl)pyridin-2(1H)-one] | > 1000 | > 3000 |
| < 0.0015 | 0.005 to 0.015 | C=CC(=O)N1CCc2nn(-c3ccc(C4CCC4)cc3O)c3c2C(C1)N(C(=O)c1cnc(C(F)(F)F)c(O)c1)CC3 (stereo not shown) [Compound 25, 1-(2-(4-cyclobutyl-2-hydroxyphenyl)-5-(5-hydroxy-6-(trifluoromethyl)nicotinoyl)-2,3,4,5,5a,6,8,9-octahydro-7H-1,2,5,7-tetraazabenzo[cd]azulen-7-yl)prop-2-en-1-one] | 1 to 100 | > 3000 |
| 0.015 to 0.055 | > 0.055 | CC(C)c1ccc(-n2nc3c4c2CCN(C(=O)c2ccc(Br)c5[nH]cnc25)C4CN(C(=O)/C=C/CN(C)C)CC3)cc1 (stereo not shown) [Compound 15, 1-(5-(7-bromo-1H-benzo[d]imidazole-4-carbonyl)-2-(4-isopropylphenyl)-2,3,4,5,5a,6,8,9-octahydro-7H-1,2,5,7-tetraazabenzo[cd]azulen-7-yl)-4-(dimethylamino)but-2-en-1-one] | 250 to 500 | > 3000 |

Continued, molecule first:

| Structure (SMILES) | AC50 [1] [µM] | AC50 [2] [µM] | AC50 [3] [nM] | AC50 [4] [nM] |
| --- | --- | --- | --- | --- |
| C=CC(=O)N1CCc2nn(-c3ccc(C4CC4)cc3O)c3c2C(C1)N(C(=O)c1cnc(C(C)(F)F)c(F)c1N)CC3 (stereo not shown) [Compound 206, 1-(5-(4-amino-6-(1,1-difluoroethyl)-5-fluoronicotinoyl)-2-(4-cyclopropyl-2-hydroxyphenyl)-2,3,4,5,5a,6,8,9-octahydro-7H-1,2,5,7-tetraazabenzo[cd]azulen-7-yl)prop-2-en-1-one] | 0.0015 to 0.005 | 0.0015 to 0.005 | 1 to 100 | > 3000 |
| C=CC(=O)N1CCc2nn(-c3ccc(C4CCC4)cc3O)c3c2C(C1)N(C(=O)c1ccc(OC(F)(F)F)cc1)CC3 (stereo not shown) [Compound 107, 1-(2-(4-cyclobutyl-2-hydroxyphenyl)-5-(4-(trifluoromethoxy)benzoyl)-2,3,4,5,5a,6,8,9-octahydro-7H-1,2,5,7-tetraazabenzo[cd]azulen-7-yl)prop-2-en-1-one] | 0.005 to 0.015 | 0.015 to 0.055 | 100 to 250 | > 3000 |
| C=CC(=O)N1CCc2nn(-c3ccc(C4CCC4)cc3)c3c2C(C1)N(C(=O)c1cnc(C(F)(F)F)c(O)c1)CC3 (stereo not shown) [Compound 26, 1-(2-(4-cyclobutylphenyl)-5-(5-hydroxy-6-(trifluoromethyl)nicotinoyl)-2,3,4,5,5a,6,8,9-octahydro-7H-1,2,5,7-tetraazabenzo[cd]azulen-7-yl)prop-2-en-1-one] | < 0.0015 | 0.005 to 0.015 | 1 to 100 | > 3000 |
| C=CC(=O)N1CCOc2nn(-c3ccc(C(C)C)cc3O)c3c2C(C1)N(C(=O)c1cnc(C(F)(F)F)c(O)c1)CC3 (stereo not shown) [Compound 45, 1-(2-(2-hydroxy-4-isopropylphenyl)-5-(5-hydroxy-6-(trifluoromethyl)nicotinoyl)-2,3,4,5,5a,6,8,9-octahydro-7H-10-oxa-1,2,5,7-tetraazacycloocta[cd]inden-7-yl)prop-2-en-1-one] | 0.0015 to 0.005 | 0.015 to 0.055 | > 1000 | > 3000 |
| C=CC(=O)N1CCc2nn(-c3ccc(C(C)C)cc3)c3c2C(C1)N(C(=O)c1ccc(Br)c2[nH]cnc12)CC3 (stereo not shown) [Compound 7, 1-(5-(7-bromo-1H-benzo[d]imidazole-4-carbonyl)-2-(4-isopropylphenyl)-2,3,4,5,5a,6,8,9-octahydro-7H-1,2,5,7-tetraazabenzo[cd]azulen-7-yl)prop-2-en-1-one] | < 0.0015 | 0.005 to 0.015 | 1 to 100 | > 3000 |
| C=CC(=O)N1CCc2nn(-c3ccc(C45CC(C4)C5)cc3)c3c2C(C1)N(C(=O)c1cnc(C(F)(F)F)cc1N)CC3 (stereo not shown) [Compound 133, 1-(5-(4-amino-6-(trifluoromethyl)nicotinoyl)-2-(4-(bicyclo[1.1.1]pentan-1-yl)phenyl)-2,3,4,5,5a,6,8,9-octahydro-7H-1,2,5,7-tetraazabenzo[cd]azulen-7-yl)prop-2-en-1-one] | < 0.0015 | 0.005 to 0.015 | 1 to 100 | > 3000 |
| C=CC(=O)N1CCc2nn(-c3ccc(C(C)C)cc3)c3c2C(C1)N(C(=O)c1ccc(C(F)(F)F)c(=O)[nH]1)CC3 (stereo not shown) [Compound 58, 6-(7-acryloyl-2-(4-isopropylphenyl)-3,4,5,5a,6,7,8,9-octahydro-2H-1,2,5,7-tetraazabenzo[cd]azulene-5-carbonyl)-3-(trifluoromethyl)pyridin-2(1H)-one] | 0.0015 to 0.005 | 0.015 to 0.055 | 100 to 250 | > 3000 |
| C=CC(=O)N1CC(OCC2=CCOCC2)c2nn(-c3ccc(C4CCC4)cc3)c3c2C(C1)N(C(=O)c1cnc(C(F)(F)F)cc1N)CC3 (stereo not shown) [Compound 260, 1-(5-(4-amino-6-(trifluoromethyl)nicotinoyl)-2-(4-cyclobutylphenyl)-9-((3,6-dihydro-2H-pyran-4-yl)methoxy)-2,3,4,5,5a,6,8,9-octahydro-7H-1,2,5,7-tetraazabenzo[cd]azulen-7-yl)prop-2-en-1-one] | < 0.0015 | 0.0015 to 0.005 | 1 to 100 | > 3000 |
